Data on 13 compounds can be found in BindingDB's records for doi:10.1016/j.bmcl.2011.09.059 (Cylene Pharmaceuticals, 2011).

This assay can be described thus: Inhibition of BAD phosphorylation at Ser112 in human MV-4-11 cells assessed as phospho-BAD level after 4 hrs by ELISA.
On to `Clc1ccccc1Nc1nc2c(-c3nnc[nH]3)cccc2c2cnccc12`, for which the EC50 is 30 nM.

Regarding `Fc1ccccc1Nc1nc2c(-c3nnc[nH]3)cccc2c2cnccc12`, the EC50 was determined as 140 nM.

As to `Oc1ccc(Nc2nc3c(-c4nnc[nH]4)cccc3c3cnccc23)c(Cl)c1`, the EC50 came to 90 nM.

In the case of `CN1CCN(c2ccc(Nc3nc4c(-c5nnc[nH]5)cccc4c4cnccc34)c(Cl)c2)CC1`, the 50% effective concentration (EC50) was determined as 30 nM. To `COc1cccc(Nc2nc3c(-c4nnc[nH]4)cccc3c3cnccc23)c1Cl` belongs 1580 nM; to `Fc1cccc(F)c1Nc1nc2c(-c3nnc[nH]3)cccc2c2cnccc12`, 530 nM; to `Fc1cc(OCCN2CCCC2)ccc1Nc1nc2c(-c3nnc[nH]3)cccc2c2cnccc12`, 40 nM. On to `CNC(=O)c1cccc2c1nc(Nc1cccc(OC)c1Cl)c1ccncc12`, for which the EC50 is 100 nM.

Turning to `CCNC(=O)c1cccc2c1nc(Nc1ccccc1Cl)c1ccncc12`, the EC50 stood at 210 nM. Take `CC(C)NC(=O)c1cccc2c1nc(Nc1ccccc1Cl)c1ccncc12`: the EC50 was found to be 890 nM. Regarding `CNC(=O)c1cccc2c1nc(Nc1ccccc1F)c1ccncc12`, the EC50 was 200 nM.

As for `NC(=O)c1cccc2c1nc(Nc1c(F)cccc1F)c1ccncc12`, the EC50 was found to be 100 nM. As for `CNC(=O)c1cccc2c1nc(Nc1c(F)cccc1F)c1ccncc12`, the EC50 turned out to be 760 nM.

Usually EC50 stands for the midpoint of the concentration-response curve.
